The record followed here is US9290457B2, “Substituted dihydropyrimidinones and their use as inhibitors of neutrophil elastase activity” (Boehringer Ingelheim International GmbH, priority 2014, dated 2016).

Chain of neutrophil elastase (P08246 30-247): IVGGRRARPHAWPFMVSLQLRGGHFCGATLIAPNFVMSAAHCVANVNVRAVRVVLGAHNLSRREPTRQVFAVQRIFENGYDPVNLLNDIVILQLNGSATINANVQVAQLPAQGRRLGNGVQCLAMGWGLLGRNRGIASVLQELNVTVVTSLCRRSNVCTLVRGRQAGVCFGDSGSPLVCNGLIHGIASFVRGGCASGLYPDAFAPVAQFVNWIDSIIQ

This test addresses neutrophil elastase (Homo sapiens (Human), UniProt P08246). Description: Human Neutrophil Elastase Assay. The test is classed as biochemical. Particulars: substrate MeOSuc-Ala-Ala-Pro-Val-AMC.
A word on the IC50: it is the concentration that gives 50% inhibition. High values mean lower potency, low ones higher potency. The compound `CC(=O)C1=C(C)N(c2cccc(C(F)(F)F)c2)C(=O)N(C)C1c1ccc(C#N)cc1C1=CCOCC1` (centres unmarked) [Example 5.7] came in with an IC50 below 1 nM.

Regarding `CC(=O)C1=C(C)N(c2cccc(C(F)(F)F)c2)C(=O)N(C)C1c1ccc(C#N)cc1-c1cnco1` (centres unmarked) [Example 5.8], the IC50 was below 1 nM. The figure for `CC(=O)C1=C(C)N(c2cccc(C(F)(F)F)c2)C(=O)N(C)C1c1ccc(C#N)cc1-c1cccnc1` (centres unmarked) [Example 5.9] is 1.4 nM; for `CC(=O)C1=C(C)N(c2cccc(C(F)(F)F)c2)C(=O)N(C)C1c1ccc(C#N)cc1-c1ccncc1` (centres unmarked) [Example 5.10] it is 1.3 nM; for `CC(=O)C1=C(C)N(c2cccc(C(F)(F)F)c2)C(=O)N(C)C1c1ccc(C#N)cc1-c1ccc(=O)n(C)c1` (centres unmarked) [Example 5.11] it is below 1 nM. In turn, `CC(=O)C1=C(C)N(c2cccc(C(F)(F)F)c2)C(=O)N(C)C1c1ccc(C#N)cc1-c1ccc2c(cnn2C)c1` (centres unmarked) [Example 5.12] yielded an IC50 of 3 nM.

In turn, `CC(=O)C1=C(C)N(c2cccc(C(F)(F)F)c2)C(=O)N(C)C1c1ccc(C#N)cc1-c1ccc2occc2c1` (centres unmarked) [Example 5.13] gave an IC50 of 22.6 nM. The figure for `CC(=O)C1=C(C)N(c2cccc(C(F)(F)F)c2)C(=O)N(C)C1c1ccc(C#N)cc1-c1ccc2c(ccn2C)c1` (centres unmarked) [Example 5.14] is 5.7 nM; for `CC(=O)C1=C(C)N(c2cccc(C(F)(F)F)c2)C(=O)N(C)C1c1ccc(C#N)cc1-c1cncc(F)c1` (centres unmarked) [Example 5.15] it is below 1 nM; for `CC(=O)C1=C(C)N(c2cccc(C(F)(F)F)c2)C(=O)N(C)C1c1ccc(C#N)cc1-c1nnco1` (centres unmarked) [Example 6, 4-[5-Acetyl-3,6-dimethyl-2-oxo-1-(3-trifluoromethyl-phenyl)-1,2,3,4-tetrahydro-pyrimidin-4-yl]-3-[1,3,4]oxadiazol-2-yl-benzonitrile] it is below 1 nM. In turn, `CC(=O)C1=C(C)N(c2cccc(C(F)(F)F)c2)C(=O)N(C)C1c1ccc(C#N)cc1-c1ncc(C)o1` (centres unmarked) [Example 7, 4-[5-Acetyl-3,6-dimethyl-2-oxo-1-(3-trifluoromethyl-phenyl)-1,2,3,4-tetrahydro-pyrimidin-4-yl]-3-(5-methyl-oxazol-2-yl)-benzonitrile] showed an IC50 below 1 nM. Consider `CC(=O)C1=C(C)N(c2cccc(C(F)(F)F)c2)C(=O)N(C)C1c1ccc(C#N)cc1-c1nc(C)no1` (centres unmarked) [Example 9, 4-[5-Acetyl-3,6-dimethyl-2-oxo-1-(3-trifluoromethyl-phenyl)-1,2,3,4-tetrahydro-pyrimidin-4-yl]-3-(5-methyl-[1,3,4]oxadiazol-2-yl)-], for which the IC50 was below 1 nM. The same measure for `CC(=O)C1=C(C)N(c2cccc(C(F)(F)F)c2)C(=O)N(C)C1c1ccc(C#N)cc1C1=CCNCC1` (centres unmarked) [Example 10, 4-[5-Acetyl-3,6-dimethyl-2-oxo-1-(3-trifluoromethyl-phenyl)-1,2,3,4-tetrahydro-pyrimidin-4-yl]-3-(1,2,3,6-tetrahydro-pyridin-4-yl)-benzonitrile]: below 1 nM; for `CC(=O)C1=C(C)N(c2cccc(C(F)(F)F)c2)C(=O)NC1c1ccc(C#N)cc1-c1ccoc1` (centres unmarked) [Example 11, 4-[5-Acetyl-6-methyl-2-oxo-1-(3-trifluoromethyl-phenyl)-1,2,3,4-tetrahydro-pyrimidin-4-yl]-3-furan-3-yl-benzonitrile]: 4.6 nM; for `CC(=O)C1=C(C)N(c2cccc(C(F)(F)F)c2)C(=O)N(C)[C@@H]1c1ccc(C#N)cc1C(N)=O` [Example 13, 2-[(R)-5-Acetyl-3,6-dimethyl-2-oxo-1-(3-trifluoromethyl-phenyl)-1,2,3,4-tetrahydro-pyrimidin-4-yl]-5-cyano-benzamide]: below 1 nM. `CC(=O)C1=C(C)N(c2cccc(C(F)(F)F)c2)C(=O)N(C)[C@@H]1c1ccc(C#N)cc1C(=O)NC1CC1` [Example 13.2] came in with a concentration for half-maximal inhibition (IC50) below 1 nM.

Consider `CC(=O)C1=C(C)N(c2cccc(C(F)(F)F)c2)C(=O)N(C)[C@@H]1c1ccc(C#N)cc1C(=O)NCC#N` [Example 13.3], for which the IC50 was below 1 nM.
